For this assay, the target named is T1, full length human recombinant glucocorticoid receptor (Homo sapiens, UniProt P04150).
T1 construct: partially purified full length human recombinant glucocorticoid receptor; purchased Panvera/Invitrogen PV4302
T1 sequence (P04150 1-777): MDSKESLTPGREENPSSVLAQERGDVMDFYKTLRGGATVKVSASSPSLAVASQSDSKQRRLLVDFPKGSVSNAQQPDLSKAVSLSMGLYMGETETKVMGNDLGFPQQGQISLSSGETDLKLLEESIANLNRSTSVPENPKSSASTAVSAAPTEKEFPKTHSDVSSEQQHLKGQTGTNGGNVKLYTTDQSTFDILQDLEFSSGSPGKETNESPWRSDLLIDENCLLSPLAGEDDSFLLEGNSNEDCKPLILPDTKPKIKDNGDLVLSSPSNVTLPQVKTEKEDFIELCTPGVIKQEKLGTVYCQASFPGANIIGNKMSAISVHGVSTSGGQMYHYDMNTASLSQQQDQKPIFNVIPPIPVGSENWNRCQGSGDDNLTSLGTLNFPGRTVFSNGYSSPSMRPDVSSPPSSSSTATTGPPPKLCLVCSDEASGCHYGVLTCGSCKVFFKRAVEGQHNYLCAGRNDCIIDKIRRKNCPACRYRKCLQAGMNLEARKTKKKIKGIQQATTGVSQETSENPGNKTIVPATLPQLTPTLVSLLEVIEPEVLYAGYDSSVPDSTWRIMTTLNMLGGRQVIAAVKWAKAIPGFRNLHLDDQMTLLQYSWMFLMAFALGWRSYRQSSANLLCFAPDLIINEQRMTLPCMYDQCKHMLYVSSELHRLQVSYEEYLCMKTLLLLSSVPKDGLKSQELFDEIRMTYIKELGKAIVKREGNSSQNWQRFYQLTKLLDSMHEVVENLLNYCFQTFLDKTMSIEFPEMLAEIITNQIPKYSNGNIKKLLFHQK
Kind of assay: Glucocorticoid Receptor Binding Assay (fluorescence polarization competitor assay, Fluormone GS Far Red tracer). The method, then: Glucocorticoid Receptor Binding Assay
The ability of the substances to bind to the glucocorticoid receptor was determined with the help of a commercial Glucocorticoid Receptor Competitor Assay far red kit provided by Panvera/Invitrogen (PV4302). This kit is used as provided by the supplier. It contains some partially purified full length human recombinant glucocorticoid receptor, a coactivator related GR stabilizing peptide, a tight-binding fluorescent GR ligand Fluormone™ GS Far Red as labeled tracer and a screening buffer. All reagents are prepared and the assay is run according to the recommendations of the kit manufacturer.
Briefly, the GR stabilizing peptide and the human recombinant glucocorticoid receptor are both diluted with the screening buffer (pH 7.4) and are gently mixed (no vortexing) just before the assay and kept on ice until use. The fluorescent-labeled ligand is also diluted with the screening buffer just before the assay and kept on ice until use. The substances to test are pre-diluted in pure DMSO then some water is added to get an intermediate 4.2% DMSO stock solution. Ten microliter of the intermediate stock solution is gently mixed with 5 μl of diluted fluorescent-labeled ligand and 5 μl of diluted human recombinant glucocorticoid receptor in a 384-well plate (low volume, ultraclear, glass plate from Greiner ref 788896). The plate is centrifuged, sealed and incubated for 3 hours at 22° C. in the dark. The polarized fluorescence is measured with a Zeiss-HTS reader or any equivalent equipment (610-660 nm).
All compounds were tested to determine IC50 in a serial dilution experiment. The concentration at which 50% inhibition of the fluorescent GR ligand Fluormone™ GS Far Red is obtained (the IC50) is determined after fitting with a sigmoidal dose-response model of a plot of the logarithm of the concentration versus percent inhibition measured for the different concentrations. Ki's were calculated from IC50 based on Cheng-Prusoff equation (Cheng, Y, Prusoff, W H (1973) Biochem Pharmacol 22, 3099-3108): Ki=IC50/[1+D/Kd] wherein D is the concentration of the fluorescent ligand and Kd is the binding constant for the fluorescent ligand binding to the receptor under the conditions used in the competition experiment.
(In general: Fluorescence polarisation rises when a labelled molecule tumbles more slowly, as on binding a larger partner.)

The term Ki denotes the equilibrium dissociation constant of an inhibitor or competing ligand from its target.

As for `COC(=O)c1ccc(Oc2ccc([C@@H](C)[C@@](O)(c3ccc(=O)n(C)c3)C(F)(F)F)c(Cl)c2)cc1` (relative stereo) [Example 151, 4-{3-Chloro-4-[3,3,3-trifluoro-2-hydroxy-1-methyl-2(1-methyl-6-oxo-1,6-dihydro-pyridin-3-yl)-propyl]-phenoxy}-benzoic acid methyl ester], the Ki turned out to be 2.4 nM.

For the compound `C[C@H](c1ccc(Oc2ccc(C(=O)O)cc2F)cc1Cl)[C@@](O)(c1ccc(=O)n(C)c1)C(F)(F)F` (relative stereo) [Example 156, 4-{3-Chloro-4-[3,3,3-trifluoro-2-hydroxy-1-methyl-2-(1-methyl-6-oxo-1,6-dihydro-pyridin-3-yl)-propyl]-phenoxy}-3-fluoro-benzoic acid], the inhibition constant (Ki) is 0.9 nM.

With `C[C@H](c1ccc(Oc2ccc(C(=O)O)cc2Cl)cc1Cl)[C@@](O)(c1ccc(=O)n(C)c1)C(F)(F)F` (relative stereo) [Example 157, 3-Chloro-4-{3-chloro-4-[3,3,3-trifluoro-2-hydroxy-1-methyl-2(1-methyl-6-oxo-1,6-dihydro-pyridin-3-yl)-propyl]-phenoxy}-benzoic acid], the Ki amounted to 0.7 nM.

Turning to `CCOC(=O)COc1ccc(Oc2ccc([C@@H](C)[C@@](O)(c3ccc(=O)n(C)c3)C(F)(F)F)c(Cl)c2)cc1` (relative stereo) [Example 159, (4-{3-Chloro-4-[3,3,3-trifluoro-2-hydroxy-1-methyl-2-(1-methyl-6-oxo-1,6-dihydro-pyridin-3-yl)-propyl]-phenoxy}-phenoxy)-acetic acid ethyl ester], the Ki came out at 2 nM.

In the case of `COC(=O)c1cnc(Oc2ccc([C@@H](C)[C@@](O)(c3ccc(=O)n(C)c3)C(F)(F)F)c(Cl)c2)cc1C(F)(F)F` (relative stereo) [Example 163, 6-{3-Chloro-4-[3,3,3-trifluoro-2-hydroxy-1-methyl-2-(1-methyl-6-oxo-1,6-dihydro-pyridin-3-yl)-propyl]-phenoxy}-4-trifluoromethyl-nicotinic acid methyl ester], the inhibition constant Ki turned out to be 23.8 nM.

In the case of `C[C@H](c1ccc(-c2ccc(F)c(C(=O)O)c2)cc1Cl)[C@@](O)(c1ccc(=O)n(C)c1)C(F)(F)F` (relative stereo) [Example 165, 3′-Chloro-4-fluoro-4′-[3,3,3-trifluoro-2-hydroxy-1-methyl-2-(1-methyl-6-oxo-1,6-dihydro-pyridin-3-yl)-propyl]-biphenyl-3-carboxylic acid], the Ki stood at 28.3 nM.

For `C[C@@H](c1ccc(-c2ccc(CC(=O)O)cc2)cc1Cl)[C@](O)(c1ccc(=O)n(C)c1)C(F)(F)F` (relative stereo) [Example 171, {3′-Chloro-4′-[3,3,3-trifluoro-2-hydroxy-1-methyl-2-(1-methyl-6-oxo-1,6-dihydro-pyridin-3-yl)-propyl]-biphenyl-4-yl}-acetic acid], the Ki was found to be 79.3 nM.

For the compound `C[C@@H](c1ccc(Oc2ccc(C(=O)O)cc2)cc1Cl)[C@](O)(c1ccc(=O)[nH]c1)C(F)(F)F` (relative stereo) [Example 175, 4-{3-Chloro-4-[3,3,3-trifluoro-2-hydroxy-1-methyl-2-(6-oxo-1,6-dihydro-pyridin-3-yl)-propyl]-phenoxy}-benzoic acid], the Ki was 76.4 nM.

`C[C@@H](c1ccc(-c2ccc(C(=O)O)c(Cl)c2)cc1Cl)[C@](O)(c1ccc(=O)[nH]c1)C(F)(F)F` (relative stereo) [Example 179, 3,3′-Dichloro-4′-[3,3,3-trifluoro-2-hydroxy-1-methyl-2-(6-oxo-1,6-dihydro-pyridin-3-yl)-propyl]-biphenyl-4-carboxylic acid]: the Ki amounted to 505 nM.

For the compound `C[C@@H](c1ccc(-c2ccc(CC(=O)O)cc2)cc1Cl)[C@](O)(c1ccc(=O)[nH]c1)C(F)(F)F` (relative stereo) [Example 182, {3′-Chloro-4′-[3,3,3-trifluoro-2-hydroxy-1-methyl-2-(6-oxo-1,6-dihydro-pyridin-3-yl)-propyl]-biphenyl-4-yl}-acetic acid], the Ki came out at 412 nM.

In the case of `CCOC(=O)c1cc(-c2ccc([C@H](C)[C@](O)(c3ccc(=O)n(CC)c3)C(F)(F)F)c(Cl)c2)ccc1F` (relative stereo) [Example 183, 3′-Chloro-4′-[2-(1-ethyl-6-oxo-1,6-dihydro-pyridin-3-yl)-3,3,3-trifluoro-2-hydroxy-1-methyl-propyl]-4-fluoro-biphenyl-3-carboxylic acid ethyl ester], the inhibition constant (Ki) stood at 7.5 nM.

Consider `CCn1cc([C@@](O)([C@@H](C)c2ccc(-c3ccc(C(=O)O)c(F)c3)cc2Cl)C(F)(F)F)ccc1=O` (relative stereo) [Example 186, 3′-Chloro-4′-[2-(1-ethyl-6-oxo-1,6-dihydro-pyridin-3-yl)-3,3,3-trifluoro-2-hydroxy-1-methyl-propyl]-3-fluoro-biphenyl-4-carboxylic acid], for which the inhibitory constant (Ki) turned out to be 68.2 nM.

As for `COC(=O)c1ccc(Oc2ccc(Cl)c([C@H](C)[C@](O)(c3ccc(=O)n(C)c3)C(F)(F)F)c2)cc1Cl` (relative stereo) [Example 189, 2-Chloro-4-{4-chloro-3-[3,3,3-trifluoro-2-hydroxy-1-methyl-2-(1-methyl-6-oxo-1,6-dihydro-pyridin-3-yl)-propyl]-phenoxy}-benzoic acid methyl ester], the Ki turned out to be 5.5 nM.

As for `COC(=O)c1ccc(Oc2ccc([C@@H](C)[C@@](O)(c3ccc(=O)n(C)c3)C(F)(F)F)c(Cl)c2Cl)cc1` (relative stereo) [Example 197, 4-{2,3-Dichloro-4-[3,3,3-trifluoro-2-hydroxy-1-methyl-2-(1-methyl-6-oxo-1,6-dihydro-pyridin-3-yl)-propyl]-phenoxy}-benzoic acid methyl ester], the Ki stood at 1.8 nM.

As for `COC(=O)c1cnc(Oc2ccc([C@H](C)[C@](O)(c3cc(C)c(=O)n(C)c3)C(F)(F)F)c(Cl)c2)cc1C(F)(F)F` (relative stereo) [Example 205, 6-{3-Chloro-4-[2-(1,5-dimethyl-6-oxo-1,6-dihydro-pyridin-3-yl)-3,3,3-trifluoro-2-hydroxy-1-methyl-propyl]-phenoxy}-4-trifluoromethyl-nicotinic acid methyl ester], the inhibitory constant (Ki) is 1.3 nM.

Turning to `Cc1cc([C@@](O)([C@@H](C)c2ccc(Oc3ccc(C(=O)O)c(Cl)c3)cc2Cl)C(F)(F)F)cn(C)c1=O` (relative stereo) [Example 208, 2-Chloro-4-{3-chloro-4-[2-(1,5-dimethyl-6-oxo-1,6-dihydro-pyridin-3-yl)-3,3,3-trifluoro-2-hydroxy-1-methyl-propyl]-phenoxy}-benzoic acid], the inhibition constant (Ki) is 0.4 nM.

`CCOC(=O)c1cc(Oc2ccc([C@H](C)[C@](O)(c3cc(C)c(=O)n(C)c3)C(F)(F)F)c(Cl)c2)ccc1Cl` (relative stereo) [Example 210, 2-Chloro-5-{3-chloro-4-[2-(1,5-dimethyl-6-oxo-1,6-dihydro-pyridin-3-yl)-3,3,3-trifluoro-2-hydroxy-1-methyl-propyl]-phenoxy}-benzoic acid ethyl ester]: the inhibitory constant (Ki) is 2 nM.

Take `Cc1cc([C@@](O)([C@@H](C)c2ccc(Oc3ccc(F)c(C(=O)O)c3)cc2Cl)C(F)(F)F)cn(C)c1=O` (relative stereo) [Example 213, 5-{3-Chloro-4-[2-(1,5-dimethyl-6-oxo-1,6-dihydro-pyridin-3-yl)-3,3,3-trifluoro-2-hydroxy-1-methyl-propyl]-phenoxy}-2-fluoro-benzoic acid]: the Ki stood at 0.4 nM.
